Laboratory results published in patent publication US5817840A, “Water soluble taxol derivatives” (The Scripps Research Institute, priority 1997, dated 1998).
In brackets after ≈: the same amount, converted by molar mass. Read-outs that look alike come from different tables or passages of the source.

Legend:
[1] = Taxol release from protaxols in aqueous buffer; format: physicochemical; details: aqueous buffer
Protocol: The derivatives in which the C-7 hydroxyl group was acetylated were extremely unstable in aqueous media losing the C-7 substituent very rapidly. The stability of the synthesized compounds was examined at various pH's and temperatures. […] Table 1A includes the half-lives of six of these compounds at pH 7.5 and 9. […] This illustrates the ability to fine-tune the rate of release of taxol to a desired set of conditions using simple chemical principles.
Protaxol 5 was dissolved in dimethylsulphoxide (DMSO) at 25° C. and immediately added to the appropriate phosphate buffer solution at the specified temperature. Aliquots were analysed using a Waters Maxima system HPLC instrument equipped with auto-injector (3.9×300 mm C18 column equipped with a precolumn; flow rate, 1.5 ml min^-1; eluant, gradient A-B, where A is 80% 100 mM ammonium acetate, buffer pH 6.0, and B is 100% methanol; ultraviolet detector). The per cent taxol released was determined from the relative areas of the peaks corresponding to protaxol 5 and taxol (the conversion was clean, and it was assumed that the two compounds have equal molar extinction coefficients).

[2] = Water solubility in D2O by 1H NMR; details: d2o
Protocol: The solubilities of the synthesized protaxols in D2 O were determined by 1H NMR spectroscopy.
The resulting mixture was centrifuged for 20 minutes and the supernatant saturated solution was analysed by ^1 H NMR spectroscopy using a Bruker AMX-400 instrument and methanol or pyridine as internal standard. The concentration of the compound was determined by comparing several signals with the CH3 signal of methanol or the NCH signal of pyridine.

[3] = system: CHO (normal human mammary); assay: Cytotoxicity (sulphorhodamine B), normal cell line, Table 1B; format: cell-based
SK (melanoma) = assay: Cytotoxicity (sulphorhodamine B), cancer cell line, Table 1B; format: cell-based
Protocol: (§1) The cytotoxicities were determined using the sulphorhodamine B assay method (Skehan, P. et al. J. Nat. Canc. Inst. 82, 1107 (1990)).

HT-29 (colon carcinoma) = assay: as above; format: cell-based; details: Homo sapiens
Protocol: as §1

[4] = system: MOLT-4 (T-cell leukaemia); assay: as above; format: cell-based; details: Homo sapiens
Protocol: as §1

[5] = system: UCLA-P-3 (lung carcinoma); assay: as above; format: cell-based; details: Homo sapiens
Protocol: as §1

[6] = system: BT-549 (breast carcinoma); assay: as above; format: cell-based; details: Homo sapiens
Protocol: as §1

[7] = system: BALB/c 3T3 (normal mouse embryo); assay: Cytotoxicity (sulphorhodamine B), normal cell line, Table 1B; format: cell-based
Protocol: as §1

NHDF (normal human skin) = assay: as above; format: cell-based
Protocol: as §1

MCF-7 (breast carcinoma) = assay: Cytotoxicity (sulphorhodamine B), cancer cell line, Table 1B; format: cell-based; details: Homo sapiens
Protocol: as §1

H322 (lung carcinoma) = assay: as above; format: cell-based
Protocol: as §1

[8] = system: PC-3 (prostate carcinoma); assay: as above; format: cell-based; details: Homo sapiens
Protocol: as §1

SIHA (cervix carcinoma) = assay: as above; format: cell-based; details: Homo sapiens
Protocol: as §1

Capan-1 (pancreatic) = assay: as above; format: cell-based; details: Homo sapiens
Protocol: as §1

[9] = system: CHO (Chinese hamster ovary); assay: Cytotoxicity (sulphorhodamine B), normal cell line, Table 1B; format: cell-based; details: Cricetulus griseus
Protocol: as §1

L1210 (mouse leukaemia) = assay: Cytotoxicity (sulphorhodamine B), cancer cell line, Table 1B; format: cell-based
Protocol: as §1

[10] = system: RPMI-7666 (normal human PBLs); assay: Cytotoxicity (sulphorhodamine B), normal cell line, Table 1B; format: cell-based
Protocol: as §1

[11] = system: HL-60 (promyel carcinoma); assay: Cytotoxicity (sulphorhodamine B), cancer cell line, Table 1B; format: cell-based; details: Homo sapiens
Protocol: as §1

[12] = system: 786-0 (renal cell carcinoma); assay: as above; format: cell-based; details: Homo sapiens
Protocol: as §1

[13] = system: OVCAR-3 (ovarian carcinoma); assay: as above; format: cell-based; details: Homo sapiens, OVCAR-3, 72 h
Protocol: as §1

[14] = pH 7.5, 37° C., read-out: t1/2 (pH 7.5), 50% taxol release
[15] = pH 9, 37° C., read-out: t1/2 (pH 9), 50% taxol release

## CC(=O)O[C@H]1C(=O)[C@@]2(C)[C@H]([C@H](OC(=O)c3ccccc3)[C@]3(O)C[C@H](OC(=O)[C@H](OC(=O)OCCS(=O)(=O)c4ccccc4)[C@@H](NC(=O)c4ccccc4)c4ccccc4)C(C)=C1C3(C)C)[C@]1(OC(C)=O)CO[C@@H]1C[C@@H]2O
[1]; [14]
  half-life: > 8.33 h
[1]; [15]
  half-life: 1.1 h

## CC(=O)O[C@H]1C(=O)[C@@]2(C)[C@H]([C@H](OC(=O)c3ccccc3)[C@]3(O)C[C@H](OC(=O)[C@H](OC(=O)COCC(=O)O)[C@@H](NC(=O)c4ccccc4)c4ccccc4)C(C)=C1C3(C)C)[C@]1(OC(C)=O)CO[C@@H]1C[C@@H]2O [drawing 5]
[2]
  solubility: 840 µg/mL (≈ 866 µM)
[1]; [14]
  half-life: > 8.33 h
[1]; [15]
  half-life: 1.83 h

## CC(=O)O[C@H]1C(=O)[C@]2(C)[C@@H](OC(=O)COCC(=O)O)C[C@H]3OC[C@@]3(OC(C)=O)[C@H]2[C@H](OC(=O)c2ccccc2)[C@]2(O)C[C@H](OC(=O)[C@H](OC(=O)COCC(=O)O)[C@@H](NC(=O)c3ccccc3)c3ccccc3)C(C)=C1C2(C)C [drawing 13]
[2]
  solubility: 500 µg/mL (≈ 460 µM)

## CC(=O)O[C@H]1C(=O)[C@]2(C)[C@@H](OC(=O)CSCC(=O)O)C[C@H]3OC[C@@]3(OC(C)=O)[C@H]2[C@H](OC(=O)c2ccccc2)[C@]2(O)C[C@H](OC(=O)[C@H](OC(=O)CSCC(=O)O)[C@@H](NC(=O)c3ccccc3)c3ccccc3)C(C)=C1C2(C)C [Compound 12]
[3]; Homo sapiens, 72 h
  IC50: 100000 nM
SK (melanoma); 72 h
  IC50: 10000 nM
HT-29 (colon carcinoma); HT-29, 72 h
  IC50: 100 nM
[4]; MOLT-4, 72 h
  IC50: < 1 nM
[5]; UCLA P-3, 72 h
  IC50: 1 nM
[6]; BT-549, 72 h
  IC50: < 1 nM
[7]; BALB/c3T3, 72 h
  IC50: 10000 nM
NHDF (normal human skin); 72 h
  IC50: 1000 nM
MCF-7 (breast carcinoma); MCF7, 72 h
  IC50: 10000 nM
H322 (lung carcinoma); NCI-H322, 72 h
  IC50: 100 nM
[8]; 72 h
  IC50: 1000 nM
SIHA (cervix carcinoma); SiHa, 72 h
  IC50: 10000 nM
Capan-1 (pancreatic); CAPAN-1, 72 h
  IC50: < 1 nM
[9]; 72 h
  IC50: 100000 nM
L1210 (mouse leukaemia); L1210, 72 h
  IC50: 1000 nM
[10]; 72 h
  IC50: 100000 nM
[11]; HL-60, 72 h
  IC50: < 1 nM
[12]; 786-0, 72 h
  IC50: 1000 nM

## CC(=O)O[C@H]1C(=O)[C@]2(C)[C@@H](OC(=O)COCC(=O)O)C[C@H]3OC[C@@]3(OC(C)=O)[C@H]2[C@H](OC(=O)c2ccccc2)[C@]2(O)C[C@H](OC(=O)[C@H](OC(=O)COCC(=O)O)[C@@H](NC(=O)c3ccccc3)c3ccccc3)C(C)=C1C2(C)C [Compound 11]
[3]; CHO, normal human mammary, 72 hours, read-out: IC50
  IC50: 100000 nM
SK (melanoma); SK melanoma, 72 hours, read-out: IC50
  IC50: 10000 nM
HT-29 (colon carcinoma); HT-29, 72 hours, read-out: IC50
  IC50: < 1 nM
[4]; MOLT-4, 72 hours, read-out: IC50
  IC50: < 1 nM
[5]; UCLA-P-3, 72 hours, read-out: IC50
  IC50: 1 nM
[6]; BT-549, 72 hours, read-out: IC50
  IC50: < 1 nM
[7]; BALB/c3T3, BALB/c 3T3, 72 hours, read-out: IC50
  IC50: 1000 nM
NHDF (normal human skin); 72 hours, read-out: IC50
  IC50: 1000 nM
MCF-7 (breast carcinoma); MCF7, CF-7 / MCF-7, 72 hours, read-out: IC50
  IC50: 10000 nM
H322 (lung carcinoma); NCI-H322, H322, 72 hours, read-out: IC50
  IC50: 1 nM
[8]; PC-3, 72 hours, read-out: IC50
  IC50: 1000 nM
SIHA (cervix carcinoma); SIHA, 72 hours, read-out: IC50
  IC50: 10000 nM
Capan-1 (pancreatic); Capan-1, 72 hours, read-out: IC50
  IC50: < 1 nM
[9]; CHO, Chinese hamster ovary, 72 hours, read-out: IC50
  IC50: 100000 nM
L1210 (mouse leukaemia); L1210, 72 hours, read-out: IC50
  IC50: 1000 nM
[10]; RPMI-7666, 72 hours, read-out: IC50
  IC50: 100000 nM
[11]; HL-60, 72 hours, read-out: IC50
  IC50: < 1 nM
[12]; 786-0, 72 hours, read-out: IC50
  IC50: 1000 nM

## CC(=O)O[C@H]1C(=O)[C@@]2(C)[C@H]([C@H](OC(=O)c3ccccc3)[C@]3(O)C[C@H](OC(=O)[C@H](OC(=O)CS(=O)(=O)CC(=O)O)[C@@H](NC(=O)c4ccccc4)c4ccccc4)C(C)=C1C3(C)C)[C@]1(OC(C)=O)CO[C@@H]1C[C@@H]2O [drawing 7]
[2]
  solubility: 1200 µg/mL (≈ 1180 µM)
[1]; [14]
  half-life: > 8.33 h
[1]; [15]
  half-life: 0.5 h

## CC(=O)O[C@H]1C(=O)[C@@]2(C)[C@H]([C@H](OC(=O)c3ccccc3)[C@]3(O)C[C@H](OC(=O)[C@H](OC(=O)CSCC(=O)O)[C@@H](NC(=O)c4ccccc4)c4ccccc4)C(C)=C1C3(C)C)[C@]1(OC(C)=O)CO[C@@H]1C[C@@H]2O [drawing 6]
[2]
  solubility: 350 µg/mL (≈ 355 µM)
[1]; [14]
  half-life: > 8.33 h
[1]; [15]
  half-life: 5 h

## CC(=O)O[C@H]1C(=O)[C@@]2(C)[C@H]([C@H](OC(=O)c3ccccc3)[C@]3(O)C[C@H](OC(=O)[C@H](OC(=O)OCCS(=O)(=O)c4ccc(N)cc4)[C@@H](NC(=O)c4ccccc4)c4ccccc4)C(C)=C1C3(C)C)[C@]1(OC(C)=O)CO[C@@H]1C[C@@H]2O [Compound 10]
[3]; Homo sapiens, 72 h
  IC50: 100000 nM
SK (melanoma); 72 h
  IC50: 10000 nM
HT-29 (colon carcinoma); HT-29, 72 h
  IC50: < 1 nM
[4]; MOLT-4, 72 h
  IC50: < 1 nM
[5]; UCLA P-3, 72 h
  IC50: < 1 nM
[6]; BT-549, 72 h
  IC50: 100 nM
[7]; BALB/c3T3, 72 h
  IC50: 10000 nM
NHDF (normal human skin); 72 h
  IC50: 1000 nM
MCF-7 (breast carcinoma); MCF7, 72 h
  IC50: 10000 nM
H322 (lung carcinoma); NCI-H322, 72 h
  IC50: 10 nM
[8]; 72 h
  IC50: 1000 nM
SIHA (cervix carcinoma); SiHa, 72 h
  IC50: 10000 nM
Capan-1 (pancreatic); CAPAN-1, 72 h
  IC50: < 1 nM
[9]; 72 h
  IC50: 100000 nM
L1210 (mouse leukaemia); L1210, 72 h
  IC50: 10000 nM
[10]; 72 h
  IC50: 100000 nM
[11]; HL-60, 72 h
  IC50: < 1 nM
[13]
  IC50: < 1 nM
[12]; 786-0, 72 h
  IC50: 1000 nM

## CC(=O)O[C@H]1C(=O)[C@@]2(C)[C@H]([C@H](OC(=O)c3ccccc3)[C@]3(O)C[C@H](OC(=O)[C@H](OC(=O)OCCS(=O)(=O)c4ccc([N+](=O)[O-])cc4)[C@@H](NC(=O)c4ccccc4)c4ccccc4)C(C)=C1C3(C)C)[C@]1(OC(C)=O)CO[C@@H]1C[C@@H]2O [drawing 11]
[1]; [14]
  half-life: > 8.33 h
[1]; [15]
  half-life: 0.117 h

## CC(=O)O[C@H]1C(=O)[C@]2(C)[C@@H](OC(=O)CSCC(=O)O)C[C@H]3OC[C@@]3(OC(C)=O)[C@H]2[C@H](OC(=O)c2ccccc2)[C@]2(O)C[C@H](OC(=O)[C@H](OC(=O)CSCC(=O)O)[C@@H](NC(=O)c3ccccc3)c3ccccc3)C(C)=C1C2(C)C [drawing 14]
[2]
  solubility: 460 µg/mL (≈ 411 µM)

## CC(=O)O[C@H]1C(=O)[C@@]2(C)[C@H]([C@H](OC(=O)c3ccccc3)[C@]3(O)C[C@H](OC(=O)[C@H](OC(=O)OCCS(=O)(=O)c4ccc(N)cc4)[C@@H](NC(=O)c4ccccc4)c4ccccc4)C(C)=C1C3(C)C)[C@]1(OC(C)=O)CO[C@@H]1C[C@@H]2O [drawing 12]
[1]; [14]
  half-life: > 8.33 h
[1]; [15]
  half-life: 1.68 h

## CC(=O)O[C@H]1C(=O)[C@@]2(C)[C@H]([C@H](OC(=O)c3ccccc3)[C@]3(O)C[C@H](OC(=O)[C@H](OC(=O)OCCSc4ccccc4)[C@@H](NC(=O)c4ccccc4)c4ccccc4)C(C)=C1C3(C)C)[C@]1(OC(C)=O)CO[C@@H]1C[C@@H]2O [Compound 7]
[3]; Homo sapiens, 72 h
  IC50: 100000 nM
SK (melanoma); 72 h
  IC50: 10000 nM
HT-29 (colon carcinoma); HT-29, 72 h
  IC50: < 1 nM
[4]; MOLT-4, 72 h
  IC50: < 1 nM
[5]; UCLA P-3, 72 h
  IC50: < 1 nM
[6]; BT-549, 72 h
  IC50: < 1 nM
[7]; BALB/c3T3, 72 h
  IC50: 10000 nM
NHDF (normal human skin); 72 h
  IC50: 1000 nM
MCF-7 (breast carcinoma); MCF7, 72 h
  IC50: 10000 nM
H322 (lung carcinoma); NCI-H322, 72 h
  IC50: 1 nM
[8]; 72 h
  IC50: 1000 nM
SIHA (cervix carcinoma); SiHa, 72 h
  IC50: 10000 nM
Capan-1 (pancreatic); CAPAN-1, 72 h
  IC50: < 1 nM
[9]; 72 h
  IC50: 100000 nM
L1210 (mouse leukaemia); L1210, 72 h
  IC50: 10000 nM
[10]; 72 h
  IC50: 100000 nM
[11]; HL-60, 72 h
  IC50: < 1 nM
[13]
  IC50: < 1 nM
[12]; 786-0, 72 h
  IC50: 10000 nM
